Source: US6340560B1, “Aminopolycarboxylic acid chelating agent, heavy metal chelate compound thereof, photographic additive and processing method” (Fuji Photo Film Co., Ltd., priority 1996, dated 2002)

Assay: Example 12: biodegradability, 302 Revised Zahn-Wellens test (OECD Chemical Test Guideline)

biodegradable [%]	biodegradability (in words)	Compound
70		CN(CCN(C)[C@@H](CC(=O)O)C(=O)O)[C@@H](CC(=O)O)C(=O)O [Compound 32]
70		CN(CCN(C)[C@@H](CCC(=O)O)C(=O)O)[C@@H](CCC(=O)O)C(=O)O [Compound 45]
	scarcely biodegradable	O=C(O)CN(CCN(CC(=O)O)CC(=O)O)CC(=O)O [Ethylenediaminetetraacetic acid, reference compound]
